Values quoted from earlier work in publication PMC11170759, “Advancing Parkinson’s Disease Diagnostics: The Potential of Arylpyrazolethiazole Derivatives for Imaging α-Synuclein Aggregates” (ACS Omega, 2024).

System: α-synuclein aggregates
Design: method as in PMID 34577548
Settings: literature ligand of Figure 1; cited from earlier work

In the case of `c1ccc(-c2ccc(C3CC(c4ccc5c(c4)OCO5)=NN3)o2)cc1` (stereo not shown) [8b], the “reduction of ThT fluorescence” value is given as 94%.
